Measurements as given in ChEMBL document CHEMBL1130964, “Naphthoquinone analogs as inactivators of cdc25 phosphatase” (1998).

Assays:
Assay type in all cases: functional
SK-HEP1 [1] = test: The compound was evaluated for the percent cell cycle fraction when human hepatoma SK hep-1 cells were treated with the compound for 0 hr at a concentration of 4 uM in the G1 phase of cell cycle
SK-HEP1 [2] = test: The compound was evaluated for the percent cell cycle fraction when human hepatoma SK hep-1 cells were treated with the compound for 0 hr at a concentration of 4 uM in the G2/M phase of cell cycle
SK-HEP1 [3] = test: The compound was evaluated for the percent cell cycle fraction when human hepatoma SK hep-1 cells were treated with the compound for 12 hours at a concentration of 4 uM in the G1 phase of cell cycle
SK-HEP1 [4] = test: The compound was evaluated for the percent cell cycle fraction when human hepatoma SK hep-1 cells were treated with the compound for 12 hours at a concentration of 4 uM in the G2/M phase of cell cycle
Homo sapiens [5] = organism: Homo sapiens; test: The compound was evaluated for the percent cell cycle fraction when human hepatoma SK hep-1 cells were treated with the compound for 6 hours at a concentration of 4 uM in the G2/M phase of cell cycle
SK-HEP1 [6] = test: The compound was evaluated for the percent cell cycle fraction when human hepatoma SK hep-1 cells were treated with the compound for 24 hours at a concentration of 4 uM in the G2/M phase of cell cycle
SK-HEP1 [7] = test: The compound was evaluated for the percent cell cycle fraction when human hepatoma SK hep-1 cells were treated with the compound for 24 hours at a concentration of 4 uM in the S phase of cell cycle
SK-HEP1 [8] = test: The compound was evaluated for the percent cell cycle fraction when human hepatoma SK hep-1 cells were treated with the compound for 6 hours at a concentration of 4 uM in the S phase of cell cycle
Homo sapiens [9] = organism: Homo sapiens; test: The compound was evaluated for the percent cell cycle fraction when human hepatoma SK hep-1 cells were treated with the compound for 0 hr at a concentration of 4 uM in the S phase of cell cycle
Homo sapiens [10] = organism: Homo sapiens; test: The compound was evaluated for the percent cell cycle fraction when human hepatoma SK hep-1 cells were treated with the compound for 12 hours at a concentration of 4 uM in the S phase of cell cycle
Homo sapiens [11] = organism: Homo sapiens; test: The compound was evaluated for the percent cell cycle fraction when human hepatoma SK hep-1 cells were treated with the compound for 24 hours at a concentration of 4 uM in the G1 phase of cell cycle
Homo sapiens [12] = organism: Homo sapiens; test: The compound was evaluated for the percent cell cycle fraction when human hepatoma SK hep-1 cells were treated with the compound for 6 hours at a concentration of 4 uM in the G1 phase of cell cycle

O=C1C=CC(=O)c2c(O)c(Cl)c(Cl)c(O)c21
Cell cycle fraction (SK-HEP1 [1]): 48% | Cell cycle fraction (SK-HEP1 [2]): 31% | Cell cycle fraction (SK-HEP1 [3]): 70% | Cell cycle fraction (SK-HEP1 [4]): 16% | Cell cycle fraction (Homo sapiens [5]): 26% | Cell cycle fraction (SK-HEP1 [6]): 16% | Cell cycle fraction (SK-HEP1 [7]): 13% | Cell cycle fraction (SK-HEP1 [8]): 20% | Cell cycle fraction (Homo sapiens [9]): 21% | Cell cycle fraction (Homo sapiens [10]): 14% | Cell cycle fraction (Homo sapiens [11]): 71% | Cell cycle fraction (Homo sapiens [12]): 54%
